pIC50: −log10 of the molar value.
How the values were obtained:
Assay type in all cases: cell-based
p-ERK [1] = assay: Cell p-ERK assay (HTRF, Advance ERK phospho-T202/Y204 kit) in NCI-H441 cells; conditions: Homo sapiens, NCI-H441, 3 h, NCI-H441, human non-small cell lung cancer cell strain, KRAS G12V mutation; 3 h compound incubation
How it was run: (§1)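 Phospho-ERK (T202/Y204) measured by HTRF in lysates of AsPC-1 (KRAS G12D) or NCI-H441 (KRAS G12V) cells after 3 h compound exposure at 37 °C in RPMI-1640 + 10% FBS, 0.1% DMSO. Inhibition normalised to DMSO and blank wells; IC50 by four-parameter fit.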

p-ERK [2] = assay: Cell p-ERK assay (HTRF, Advance ERK phospho-T202/Y204 kit) in AsPC-1 cells; conditions: ASPC1; AsPC-1, human pancreatic cancer cell strain, KRAS G12D mutation; 3 h compound incubation
How it was run: as §1

NCI-H441 cells = assay: 3D cell proliferation assay (CellTiter Glo-3D) in NCI-H441 cells; conditions: Homo sapiens, NCI-H441, 120 h, NCI-H441, human lung cancer cell strain, KRAS G12V mutation; 3D culture, 2% FBS, 5 days; read-out: H441 AP IC50
How it was run: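 KRAS^G12V NCI-H441 and KRAS^G12D AsPC-1 cells (800 cells/well each) grown in RPMI-1640 with 2% FBS and treated the day after seeding with 3.16-fold compound dilutions (0.1% DMSO) for 5 days at 37 °C. Viability by CellTiter-Glo 3D luminescence; inhibition versus DMSO and cell-free controls, IC50 from four-parameter fit.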

AsPC-1 cells = assay: 3D cell proliferation assay (CellTiter Glo-3D) in AsPC-1 cells; conditions: ASPC1, 120 h; AsPC-1, human pancreatic cancer cell strain, KRAS G12D mutation; 3D culture, 2% FBS, 5 days; read-out: AsPC-1 AP IC50
Excerpt: MIA PaCa-2 cells were purchased from ATCC, Cat. No. CRL-1420; AsPC-1 cells were purchased from ATCC, Cat. No. CRL-1682; NCI-H441 cells were purchased from ATCC, Cat. No. HTB-174; NCI-H1975 cells were purchased from ATCC, Cat. No. CRL-5908; DMEM medium was purchased from Gibco, Cat. No. 11995-065; RPMI-1640 medium was purchased from Gibco, Cat. No. 11875-093; FBS was purchased from Gibco, Cat. No. 10099-141C; penicillin/streptomycin double-antibiotic solution (PS) was purchased from Gibco, Cat. No. 15140-122; Horse serum was purchased from Gibco, Cat. No. 16050130; trypsin (containing EDTA) was purchased from Gibco, Cat. No. 25200-072; DMSO was purchased from VWRAMRESCO, Cat. No. 0231-500ML; 384-well cell culture plates were purchased from Corning, Cat. No. 3830; white-bottomed, opaque 384-well assay plates were purchased from Corning, Cat. No. 3570; CellTiter Glo-3D kit was purchased from Promega, Cat. No. G9683; cell counter was purchased from CHEMOMETEC, model: NC-200; microplate reader was purchased from PerkinElmer, model: EnVision.
MIA PaCa-2, a human pancreatic cancer cell strain endogenously containing a KRAS^G12Cmutation, was cultured in a complete medium containing DMEM + 10% FBS + 2.5% Horse serum + 1% PS. AsPC-1, a human pancreatic cancer cell strain endogenously containing a KRAS^G12D mutation, was cultured in a complete medium containing RPMI-1640 + 10% FBS + 1% PS. NCI-H441 cells, a human lung cancer cell strain endogenously containing a KRAS^G12V mutation, were cultured in a complete medium containing RPMI-1640 + 10% FBS + 1% PS. NCI-H1975, a KRAS wild-type human lung cancer cell strain whose cell proliferation […], was cultured in a complete medium containing RPMI-1640 + 10% FBS + 1% PS.
The cells were digested with trypsin (containing EDTA), collected in their respective low-serum complete media containing 2% FBS (for MIA Paca-2 cell culture: DMEM + 2% FBS + 0.5% Horse serum + 1% PS), and counted. After the cell density was adjusted as required, MIA PaCa-2 cells (200 cells/well), AsPC-1 cells (800 cells/well), NCI-H441 cells (800 cells/well), or NCI-H1975 cells (400 cells/well) were seeded into a 384-well cell culture plate, with the volume of the medium in each well being 45 µL. The cell culture plate was incubated in an incubator at 37 °C with 5% CO2 overnight. A series of 3.16-fold gradient dilutions of a 1000× compound stock solution were prepared with DMSO, and then diluted 100-fold with the complete medium containing 2% FBS described above to give 10× compound stock solutions. On the day after cell seeding, 5 µL of the 10× compound stock solution was added to each cell culture well. As a result, the final concentration of the compound in the cell culture well became 1×, and the DMSO content in the well was 0.1%. In addition to the compound-treated wells described above, cell-containing DMSO control wells (with 5 µL of the complete medium containing 1% DMSO added to each well) and cell-free medium control wells (containing 50 µL of the complete medium with 2% FBS) were also set. The culture plate was incubated in an incubator at 37 °C with 5% CO2 for another 5 days, and then 30 µL of CellTiter-Glo working solution was added to each well. The mixture was well mixed, incubated for 30 min, left to stand at room temperature for 30 min, and then transferred to a white-bottomed, opaque 384-well assay plate at 40 µL/well. The chemiluminescence values (RLU) were measured using a microplate reader, and the cell proliferation inhibition rate for each well was calculated: IR(%) = (RLUDMSO - RLUcompound)/(RLUDMSO - RLUblank) × 100%, where RLUDMSO is the average RLU signal value from the DMSO control well samples, RLUblank is the average RLU signal value from the medium control well samples, and RLUcompound is the RLU signal value from the compound-treated well samples. […]

| Compound | pIC50 (p-ERK [1]) | pIC50 (p-ERK [2]) | pIC50 (NCI-H441 cells) | pIC50 (AsPC-1 cells) |
| --- | --- | --- | --- | --- |
| CCn1cc2c(c1-c1cc(C#CCN3CCC3)cnc1[C@H](C)OC)CC(C)(C)COC(=O)[C@@H]1CCCN(N1)C(=O)[C@@H](NC(=O)[C@H]1[C@H](C)[C@@H]1C)Cc1nc(cs1)/C=C/2 (atropisomer, axis not shown; (Ra)) [Compound Z70, (1r,2R,3S)-N-((4^2Z, 8^3S,2E,6S)-(Ra)-1^5-(5-(3-(azetidin-1-yl)prop-1-yn-1-yl)-2-((S)-1-methoxyethyl)pyridin-3-yl)-1^1-ethyl-12,12-dimethyl-7,9-dioxo-8^1,8^2,8^3,8^4,8^5,8^6-hexahydro-1^1H-10-oxa-4(4,2)-thiazola-8(1,3)-pyridazina-1(3,4)-pyrrolacyclotridecaphan-2-en-6-yl)-2,3-dimethylcyclopropane-1-carboxamide] | 8.69 | 8.44 | 8.95 | 8.81 |
| CCn1nc2c(c1-c1cc(C#CCN3CCC(C#N)CC3)cnc1[C@H](C)OC)CC(C)(C)COC(=O)[C@@H]1CCCN(N1)C(=O)[C@@H](NC(=O)[C@H]1[C@H](C)[C@@H]1C)Cc1nc(cs1)/C=C/2 (atropisomer, axis not shown; (Ra)) [Compound Z73, (1r,2R,3S)-N-((4^2Z,8^3S,2E,6S)-(Ra)-1^5-(5-(3-(4-cyanopiperidin-1-yl)prop-1-yn-1-yl)-2-((S)-1-methoxyethyl)pyridin-3-yl)-1^1-ethyl-12,12-dimethyl-7,9-dioxo-8^1,8^2,8^3,8^4,8^5,8^6-hexahydro-1^1H-10-oxa-4(4,2)-thiazola-8(1,3)-pyridazina-1(3,4)-pyrrolacyclotridecaphan-2-en-6-yl)-2,3-dimethylcyclopropane-1-carboxamide] | 9.06 | 8.76 | 9.04 | 8.87 |
| CCn1c(F)c2c(c1-c1cc(C#CCN3CCS(=O)(=O)CC3)cnc1[C@H](C)OC)CC(C)(C)COC(=O)[C@@H]1CCCN(N1)C(=O)[C@@H](NC(=O)[C@H]1[C@H](C)[C@@H]1C)Cc1nc(cs1)/C=C/2 (atropisomer, axis not shown; (Ra)) [Compound Z80, (1r,2R,3S)-N-((4^2Z,8^3S,2E,6S)-(Ra)-1^5-(5-(3-(1,1-dioxidothiomorpholino)prop-1-yn-1-yl)-2-((S)-1-methoxyethyl)pyridin-3-yl)-1^1-ethyl-1^2-fluoro-12,12-dimethy^l-7,9-dioxo-8^1,8^2,8^3,8^4,8^5,8^6-hexahydro-1^1H-10-oxa-4(4,2)-thiazola-8(1,3)-pyridazina-1(3,4)-pyrrolacyclotridecaphan-2-en-6-yl)-2,3-dimethylcyclopropane-1-carboxamide] | 9.70 | 9.62 | 9.74 | 9.80 |
| CCn1cc2c(c1-c1cc(C#CCN3CCC(C#N)(CN)CC3)cnc1[C@H](C)OC)CC(C)(C)COC(=O)[C@@H]1CCCN(N1)C(=O)[C@@H](NC(=O)[C@H]1[C@@H]3COC[C@@H]31)Cc1nc(co1)/C=C/2 (atropisomer, axis not shown; (Ra)) [Compound Z89, (1R,5S,6r)-N-((4^2Z,8^3S,2E, 6S)-(Ra)-1^5-(5-(3-(4-(aminomethyl)-4-cyanopiperidin-1-yl)prop-1-yn-1-yl)-2-((S)-1-methoxyethyl)pyridin-3-yl)-1^1-ethyl-12,12-dimethyl-7,9-dioxo-8^1,8^2,8^3,8^4,8^5,8^6-hexahydro-1^1 H-10-oxa-4(4,2)-oxazola-8(1,3)-pyridazina-1(3,4)-pyrrolacyclotridecaphan-2-en-6-yl)-3-oxabicyclo[3.1.0]hexane-6-carboxamide] | 9.64 | 9.89 | 9.82 | 9.96 |
| CCn1cc2c(c1-c1cc(C#CCN3CCC(C#N)(CO)CC3)cnc1[C@H](C)OC)CC(C)(C)COC(=O)[C@@H]1CCCN(N1)C(=O)[C@@H](NC(=O)[C@H]1[C@H](C)[C@@H]1C)Cc1nc(cs1)/C=C/2 (atropisomer, axis not shown; (Ra)) [Compound Z103, (1r,2R,3S)-N-((4^2Z,8^3S,2E,6S)-(Ra)-1^5-(5-(3-(4-cyano-4-(hydroxymethyl)piperidin-1-yl)prop-1-yn-1-yl)-2-((S)-1-methoxyethyl)pyridin-3-yl)-1^1-ethyl-12,12-dimethyl-7,9-dioxo-8^1,8^2,8^3,8^4,8^5,8^6-hexahydro-1^1H-10-oxa-4(4,2)-thiazola-8(1,3)-pyridazina-1(3,4)-pyrrolacyclotridecaphan-2-en-6-yl)-2,3-dimethylcyclopropane-1-carboxamide] | 9.49 | 10.10 | 9.96 | 10.30 |
| CCn1cc2c(c1-c1cc(C#CCN3CCC(C#N)(CO)CC3)cnc1[C@H](C)OC)CC(C)(C)COC(=O)[C@@H]1CCCN(N1)C(=O)[C@@H](NC(=O)[C@H]1[C@@H]3COC[C@@H]31)Cc1nc(cs1)/C=C/2 (atropisomer, axis not shown; (Ra)) [Compound Z104, (1R,5S,6r)-N-((4^2Z,8^3S,2E,6S)-(Ra)-1^5-(5-(3-(4-cyano-4-(hydroxymethyl)piperidin-1-yl)prop-1-yn-1-yl)-2-((S)-1-methoxyethyl)pyridin-3-yl)-1^1ethyl-12,12-dimethyl-7,9-dioxo-8^1,8^2,8^3,8^4,8^5,8^6-hexahydro-1^1H-10-oxa-4(4,2)-thiazola-8(1,3)-pyridazina-1(3,4)-pyrrolacyclotridecaphan-2-en-6-yl)-3-oxabicyclo[3.1.0]hexane-6-carboxamide] | 9.33 | 9.77 | 9.85 | 9.72 |
| CCn1cc2c(c1-c1cc(C#CCN3CCS(=O)(=O)CC3)cnc1[C@H](C)OC)CC(C)(C)COC(=O)[C@@H]1CCCN(N1)C(=O)[C@@H](NC(=O)[C@H]1[C@H](C)[C@@H]1C)Cc1nc(cs1)/C=C/2 (atropisomer, axis not shown; (Ra)) [Compound Z118, (1r,2R,3S)-N-((4^2Z,8^3S,2E,6S)-(Ra)-1^5-(5-(3-(1,1-dioxidothiomorpholino)prop-1-yn-1-yl)-2-((S)-1-methoxyethyl)pyridin-3-yl)-1^1-ethyl-12,12-dimethyl-7,9-dioxo-8^1,8^2,8^3,8^4,8^5,8^6-hexahydro-1^1H-10-oxa-4(4,2)-thiazola-8(1,3)-pyridazina-1(3,4)-pyrrolacyclotridecaphan-2-en-6-yl)-2,3-dimethylcyclopropane-1-carboxamide] | 9.33 | 9.70 | 9.55 | 9.62 |

— EP4772514A1, “MACROCYCLIC COMPOUNDS, PREPARATION METHOD THEREFOR, AND USE THEREOF” (Genfleet Therapeutics (Shanghai) Inc., priority 2023, dated 2025)
